Results as given in patent US10669302B2, “Crystal form of fludarabine phosphate, preparation method therefor, and application thereof” (Zhejiang Hisun Pharmaceutical Co., Ltd., priority 2015, dated 2020).

Experiments:
[1] = Tests of dissolution rates (turbidimeter, purified water); format: physicochemical; set-up: Reading: unit not given here; details: for Solution state / Reading / Turbidity: 50 mg in 10 ml purified water; for Clarity achieved in purified water: in a short period of time, summary of Table 3; for Reading: turbidimeter
Description: The turbidimeter and the test conditions involved in the present invention are: turbidimeter model: MERCK TURBIQUANT 1500IR; operation method: the purified water was used as a zero point control, 50 mg of crystal form I of fludarabine phosphate and 50 mg of crystal form II of fludarabine phosphate were dissolved in 10 ml of purified water respectively as test samples, the specific test data can be seen in Table 3.
Tests of Dissolution Rates for Crystal Form I and Crystal Form II of Fludarabine Phosphate

[2] = Stability tests (sealed PE and aluminum foil bags, liquid chromatography); format: physicochemical; details: for Stability in words: under room temperature and refrigerated conditions, summary of Table 4
Description: The liquid chromatography test conditions involved in the present invention are: chromatographic column: SHIMADZU, VP-ODS, 4.6 mm×15 cm 5 μm or equivalent;
mobile phase A: 10 mM monopotassium phosphate (0.01 mol/l):methanol=47:3; detection wavelength: 260 nm; flow rate: 1.0 ml/min; injection volume: 10 μl.
Packaging condition: crystal form I and crystal form II of fludarabine phosphate were first sealed and packaged with PE bags respectively, and then sealed and packaged with aluminum foil bags outside, the samples were reserved at room temperature and refrigerated conditions, the samples were tested with the liquid chromatography. The test condition of the liquid chromatography is described in SUMMARY OF THE INVENTION section of this application.

[3] = before the samples were reserved
[4] = refrigerated (2-10° C.), humidity 75%, reserved for five months
[5] = refrigerated (2-10° C.), humidity 75%, reserved for four months
[6] = refrigerated (2-10° C.), humidity 75%, reserved for one month
[7] = refrigerated (2-10° C.), humidity 75%, reserved for six months
[8] = refrigerated (2-10° C.), humidity 75%, reserved for three months
[9] = refrigerated (2-10° C.), humidity 75%, reserved for two months
[10] = room temperature (10-30° C.), humidity 75%, reserved for five months
[11] = room temperature (10-30° C.), humidity 75%, reserved for four months
[12] = room temperature (10-30° C.), humidity 75%, reserved for one month
[13] = room temperature (10-30° C.), humidity 75%, reserved for six months
[14] = room temperature (10-30° C.), humidity 75%, reserved for three months
[15] = room temperature (10-30° C.), humidity 75%, reserved for two months
[16] = 10 s, listed as Cyrstal form II
[17] = 40 s, listed as Cyrstal form II

SMILES | Solution state ([1]; 70 s) | Solution state ([1]; 80 s) | Solution state ([1]; 90 s) | Solution state ([1]; 100 s) | Clarity achieved in purified water [1] | Liquid chromatography result of stability sample [2, 3] [%] | Liquid chromatography result of stability sample [2, 4] [%] | Liquid chromatography result of stability sample [2, 5] [%] | Liquid chromatography result of stability sample [2, 6] [%] | Liquid chromatography result of stability sample [2, 7] [%] | Liquid chromatography result of stability sample [2, 8] [%] | Liquid chromatography result of stability sample [2, 9] [%] | Liquid chromatography result of stability sample [2, 10] [%] | Liquid chromatography result of stability sample [2, 11] [%] | Liquid chromatography result of stability sample [2, 12] [%] | Liquid chromatography result of stability sample [2, 13] [%] | Liquid chromatography result of stability sample [2, 14] [%] | Liquid chromatography result of stability sample [2, 15] [%] | Stability in words [2] | other results
Nc1nc(F)nc2c1ncn2[C@@H]1O[C@H](COP(=O)(O)O)[C@@H](O)[C@@H]1O [Crystal form I, 9-β-D-arabinofuranosyl-2-fluoroadenine-5′-phosphate] | Clear | Clear | Clear | Clear | good clarity | 99.685 | 99.685 | 99.685 | 99.685 | 99.685 | 99.685 | 99.685 | 99.684 | 99.684 | 99.685 | 99.684 | 99.685 | 99.685 | good stabilities | Solution state ([1]; 5 s): Clear; Solution state ([1]; 10 s): Clear; Solution state ([1]; 20 s): Clear; Solution state ([1]; 30 s): Clear; Solution state ([1]; 40 s): Clear; Solution state ([1]; 50 s): Clear; Solution state ([1]; 60 s): Clear; Reading ([1]; 5 s): 2.2; Reading ([1]; 10 s): 1.75; Reading ([1]; 20 s): 1.75; Reading ([1]; 30 s): 1.75; Reading ([1]; 40 s): 1.75; Reading ([1]; 50 s): 1.75; Reading ([1]; 60 s): 1.75; Reading ([1]; 70 s): 1.75; Reading ([1]; 80 s): 1.75; Reading ([1]; 90 s): 1.75; Reading ([1]; 100 s): 1.75
Nc1nc(F)nc2c1ncn2[C@@H]1O[C@H](COP(=O)(O)O)[C@@H](O)[C@@H]1O [Crystal form II, 9-β-D-arabinofuranosyl-2-fluoroadenine-5′-phosphate] | Clear | Clear | Clear | Clear | good clarity | 99.677 | 99.677 | 99.677 | 99.677 | 99.677 | 99.677 | 99.677 | 99.663 | 99.663 | 99.673 | 99.663 | 99.667 | 99.668 | good stabilities | Solution state ([1]; 5 s, listed as Cyrstal form II): Turbid; Turbidity ([1]; 5 s, listed as Cyrstal form II): Sample >1; Solution state [1, 16]: Turbid; Turbidity [1, 16]: Sample >1; Solution state ([1]; 20 s, listed as Cyrstal form II): Turbid; Solution state ([1]; 30 s, listed as Cyrstal form II): Turbid; Solution state [1, 17]: Turbid; Reading [1, 17]: 6.41; Reading ([1]; 50 s, listed as Cyrstal form II): 4.54; Reading ([1]; 60 s, listed as Cyrstal form II): 3.32; Reading ([1]; 70 s, listed as Cyrstal form II): 2.56; Reading ([1]; 80 s, listed as Cyrstal form II): 2.41; Reading ([1]; 90 s, listed as Cyrstal form II): 2.29; Reading ([1]; 100 s, listed as Cyrstal form II): 2.29
